The supplement of paper PMC10307832

What was measured:
Test in all cases: relative viability (nuclei count vs DMSO), 5 days (fraction); higher = more cells survive
[1] = compound: O=C(/C=C/c1ccccc1)NC(NC(=S)Nc1cccc2cccnc12)C(Cl)(Cl)Cl [Salubrinal] + COc1cc2c(Oc3ccc(NC(=O)C4(C(=O)Nc5ccc(F)cc5)CC4)cc3F)ccnc2cc1OCCCN1CCOCC1 [Foretinib] (partner 0.25 µM)
Procedure, shortened: (§1)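 A single step with final 0.05% Triton X-100, 1% formaldehyde and 1 ug/ml Hoechst fixed the cells and stained nuclei 5 days after treatment. Lung cancer cell lines in 1536-well plates had been treated by pin tool the day after seeding with one drug alone or a fixed anchor-drug dose plus five library-drug doses (not always all listed) in √10 steps, and nuclei were counted on 4× images. Relative viability is the ratio of nuclei in treated wells to nuclei in vehicle wells, taken as the median of duplicate plates.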

[2] = compound: Cc1ccc2nc(NCCN)c3ncc(C)n3c2c1 + Cc1nc(Nc2ncc(C(=O)Nc3c(C)cccc3Cl)s2)cc(N2CCN(CCO)CC2)n1 [Dasatinib] (partner 0.075 µM)
Procedure, shortened: as §1

[3] = compound: O=C(/C=C/c1ccccc1)NC(NC(=S)Nc1cccc2cccnc12)C(Cl)(Cl)Cl [Salubrinal] + CC(=O)Nc1cccc(-n2c(=O)n(C3CC3)c(=O)c3c(Nc4ccc(I)cc4F)n(C)c(=O)c(C)c32)c1 [Trametinib] (partner 0.02 µM)
Procedure, shortened: as §1

[4] = compound: O=C(/C=C/c1ccccc1)NC(NC(=S)Nc1cccc2cccnc12)C(Cl)(Cl)Cl [Salubrinal] + CS(=O)(=O)N1CCN(Cc2cc3nc(-c4cccc5[nH]ncc45)nc(N4CCOCC4)c3s2)CC1 [Pictilisib] (partner 1 µM)
Procedure, shortened: as §1

| Cell Line | relative viability ([1]; first compound 0.08 µM) | relative viability ([1]; first compound 0.253 µM) | relative viability ([1]; first compound 0.8 µM) | relative viability ([1]; first compound 2.53 µM) | relative viability ([1]; first compound 8 µM) | relative viability ([2]; first compound 0.04 µM) | relative viability ([2]; first compound 0.1265 µM) | relative viability ([2]; first compound 0.4 µM) | relative viability ([2]; first compound 1.265 µM) | relative viability ([2]; first compound 4 µM) | relative viability ([3]; first compound 0.08 µM) | relative viability ([3]; first compound 0.253 µM) | relative viability ([3]; first compound 0.8 µM) | relative viability ([3]; first compound 2.53 µM) | relative viability ([3]; first compound 8 µM) | relative viability ([4]; first compound 0.08 µM) | relative viability ([4]; first compound 0.253 µM) | relative viability ([4]; first compound 0.8 µM) | relative viability ([4]; first compound 2.53 µM) | relative viability ([4]; first compound 8 µM) |
| --- | --- | --- | --- | --- | --- | --- | --- | --- | --- | --- | --- | --- | --- | --- | --- | --- | --- | --- | --- | --- |
| LXF-289 | 1.12 | 0.909 | 1.01 | 0.963 | 0.925 | 0.262 | 0.231 | 0.247 | 0.245 | 0.275 | 0.747 | 0.59 | 0.7 | 0.702 | 0.681 | 0.871 | 0.728 | 0.829 | 0.778 | 0.731 |
| H3255 | 0.898 | 0.953 | 1.01 | 0.822 | 0.874 | 0.396 | 0.393 | 0.45 | 0.383 | 0.387 | 0.744 | 0.55 | 0.832 | 0.582 | 0.597 | 0.561 | 0.535 | 0.576 | 0.456 | 0.487 |
| 201T | 1.36 | – | 1.17 | 1.04 | 1.12 | 0.56 | 0.501 | 0.587 | 0.524 | 0.483 | 0.741 | 0.726 | 0.788 | 0.728 | 0.716 | 0.591 | 0.636 | 0.778 | 0.706 | 0.678 |
| NCI-H2126 | 1.51 | 1.13 | 1.1 | 1.25 | 1.11 | 0.663 | 0.696 | 0.592 | 0.549 | 0.493 | 0.592 | 0.579 | 0.544 | 0.576 | 0.513 | 0.423 | 0.479 | 0.515 | 0.483 | 0.481 |
| HOP-62 | 1.07 | 0.981 | 1.22 | 1.08 | 1.14 | 0.772 | 0.626 | 0.644 | 0.634 | 0.649 | 0.438 | 0.369 | 0.382 | 0.343 | 0.338 | 0.509 | 0.468 | 0.681 | 0.505 | 0.691 |
| CAL-12T | 1.14 | 1.07 | 1.09 | 0.978 | 0.991 | 0.34 | 0.342 | 0.373 | 0.387 | 0.294 | 0.378 | 0.406 | 0.327 | 0.244 | 0.269 | 0.392 | 0.488 | 0.438 | 0.734 | 0.528 |
| NCI-H520 | 0.914 | 0.798 | 0.932 | 0.721 | 0.912 | 0.363 | 0.208 | 0.229 | 0.284 | 0.262 | 0.853 | 0.676 | 0.843 | 0.633 | 0.685 | 0.376 | 0.212 | 0.338 | 0.302 | 0.316 |
| NCI-H1755 | 0.95 | 0.928 | 0.897 | 0.911 | 0.937 | 0.475 | 0.423 | 0.445 | 0.359 | 0.393 | 0.847 | 0.803 | 0.829 | 0.765 | 0.716 | 0.564 | 0.417 | 0.535 | 0.431 | 0.401 |
| NCI-H2023 | 1.03 | 0.882 | 0.777 | 0.844 | 0.818 | 0.711 | 0.565 | 0.608 | 0.548 | 0.388 | 0.601 | 0.617 | 0.509 | 0.447 | 0.416 | 0.22 | 0.278 | 0.289 | 0.277 | 0.208 |
| NCI-H2009 | 1.28 | 1.2 | 1.27 | 1.22 | 1.24 | 0.391 | 0.284 | 0.313 | 0.283 | 0.263 | 0.345 | 0.262 | 0.271 | 0.287 | 0.222 | 0.976 | 0.857 | 1.02 | 0.756 | 0.749 |
